The text below walks through data of publication PMC3914206.

For assay [1], the target named is T1, panel of 442 kinases (Homo sapiens, UniProt O00329).
T1 construct: purchased KINOMEscan
T1 sequence (O00329 1-1044): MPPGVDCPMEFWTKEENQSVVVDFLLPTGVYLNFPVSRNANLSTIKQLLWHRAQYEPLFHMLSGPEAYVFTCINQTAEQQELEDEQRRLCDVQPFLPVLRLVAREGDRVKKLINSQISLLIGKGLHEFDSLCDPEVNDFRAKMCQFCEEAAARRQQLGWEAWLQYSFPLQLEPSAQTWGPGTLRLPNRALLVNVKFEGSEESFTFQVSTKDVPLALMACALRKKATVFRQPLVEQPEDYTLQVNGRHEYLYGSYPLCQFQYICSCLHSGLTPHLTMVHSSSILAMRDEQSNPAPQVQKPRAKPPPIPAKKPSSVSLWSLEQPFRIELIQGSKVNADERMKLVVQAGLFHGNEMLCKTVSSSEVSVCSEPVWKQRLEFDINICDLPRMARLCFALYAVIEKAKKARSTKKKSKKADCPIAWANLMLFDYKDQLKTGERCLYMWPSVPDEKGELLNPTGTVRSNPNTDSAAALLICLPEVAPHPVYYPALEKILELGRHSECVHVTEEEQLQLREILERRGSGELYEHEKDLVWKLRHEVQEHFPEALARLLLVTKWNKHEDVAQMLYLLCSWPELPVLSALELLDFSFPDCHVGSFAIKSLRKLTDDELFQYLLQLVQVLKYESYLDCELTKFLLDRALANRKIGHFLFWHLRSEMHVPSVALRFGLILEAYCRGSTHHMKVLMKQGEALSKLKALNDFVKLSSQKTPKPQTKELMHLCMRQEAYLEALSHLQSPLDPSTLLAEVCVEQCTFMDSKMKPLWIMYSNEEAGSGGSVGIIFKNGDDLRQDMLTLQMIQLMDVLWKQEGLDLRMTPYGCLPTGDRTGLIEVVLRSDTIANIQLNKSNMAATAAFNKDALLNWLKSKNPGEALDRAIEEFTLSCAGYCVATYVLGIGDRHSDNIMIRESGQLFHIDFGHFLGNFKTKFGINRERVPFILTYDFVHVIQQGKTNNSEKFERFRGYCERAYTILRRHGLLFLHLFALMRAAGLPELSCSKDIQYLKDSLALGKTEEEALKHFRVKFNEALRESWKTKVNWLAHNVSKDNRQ
Type of assay: binding. The settings on record: Compound Concentration 10 µM. The text has this: (§1) We assessed the selectivity of members of this scaffold using the KINOMEscan methodology across a near comprehensive panel of 442 kinases [[18,27]].

For assay [2], the target named is T2, panel of 442 kinases (Homo sapiens, UniProt P06213).
T2 construct: purchased KINOMEscan
Type of assay: binding. The settings on record: Compound Concentration 10 µM.
Source text: as §1

The structures appear in SMILES notation.

T2 sequence (P06213 28-1382): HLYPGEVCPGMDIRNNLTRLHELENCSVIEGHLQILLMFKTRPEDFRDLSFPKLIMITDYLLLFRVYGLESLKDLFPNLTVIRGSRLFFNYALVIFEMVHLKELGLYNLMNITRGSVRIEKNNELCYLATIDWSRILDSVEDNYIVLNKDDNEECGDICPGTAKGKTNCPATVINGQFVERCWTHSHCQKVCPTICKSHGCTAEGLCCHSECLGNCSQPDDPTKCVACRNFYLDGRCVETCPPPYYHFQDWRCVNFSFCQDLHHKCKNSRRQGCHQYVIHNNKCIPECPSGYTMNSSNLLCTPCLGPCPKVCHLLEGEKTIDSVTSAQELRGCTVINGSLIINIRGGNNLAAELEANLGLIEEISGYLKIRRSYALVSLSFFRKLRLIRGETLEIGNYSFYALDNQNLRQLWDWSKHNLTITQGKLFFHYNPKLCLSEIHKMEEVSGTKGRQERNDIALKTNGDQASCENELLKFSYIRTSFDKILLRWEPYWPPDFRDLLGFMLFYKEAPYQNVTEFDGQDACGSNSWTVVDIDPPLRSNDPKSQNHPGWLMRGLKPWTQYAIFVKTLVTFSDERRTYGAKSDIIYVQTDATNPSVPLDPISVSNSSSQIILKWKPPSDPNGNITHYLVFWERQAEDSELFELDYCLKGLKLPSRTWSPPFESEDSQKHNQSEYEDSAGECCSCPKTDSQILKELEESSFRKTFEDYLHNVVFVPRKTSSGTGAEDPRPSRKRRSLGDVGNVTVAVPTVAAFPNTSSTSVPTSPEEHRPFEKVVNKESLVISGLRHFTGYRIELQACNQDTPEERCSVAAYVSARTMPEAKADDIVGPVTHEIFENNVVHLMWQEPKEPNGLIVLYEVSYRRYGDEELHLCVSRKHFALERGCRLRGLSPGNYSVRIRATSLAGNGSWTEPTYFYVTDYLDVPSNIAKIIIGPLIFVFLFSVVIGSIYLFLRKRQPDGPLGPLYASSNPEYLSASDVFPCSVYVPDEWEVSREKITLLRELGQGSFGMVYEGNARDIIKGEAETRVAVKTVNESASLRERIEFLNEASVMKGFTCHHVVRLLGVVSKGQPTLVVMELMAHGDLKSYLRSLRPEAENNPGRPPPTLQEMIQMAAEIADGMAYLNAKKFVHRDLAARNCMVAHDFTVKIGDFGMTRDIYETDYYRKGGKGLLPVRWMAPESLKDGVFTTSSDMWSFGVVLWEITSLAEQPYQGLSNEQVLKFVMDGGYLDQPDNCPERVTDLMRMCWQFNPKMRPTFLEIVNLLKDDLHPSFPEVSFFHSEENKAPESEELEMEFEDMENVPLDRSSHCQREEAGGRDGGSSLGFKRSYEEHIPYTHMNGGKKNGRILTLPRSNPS

Take `COc1cc(C(=O)N2CCC(N3CCN(C)CC3)CC2)ccc1Nc1ncc2c(n1)N(C1CCCC1)c1ccccc1C(=O)N2C` [Compound 25, 11-cyclopentyl-2-((2-methoxy-4-(4-(4-methylpiperazin-1-yl)piperidine-1-carbonyl)phenyl)amino)-5-methyl-5H-benzo[e]pyrimido[5,4-b][1,4]diazepin-6(11H)-one]: the “KINOMEscan: PIK3CD” value on panel of 442 kinases [1] amounted to 100. Also, the “KINOMEscan: INSR” value at panel of 442 kinases [2] worked out at 88. `COc1cc(C(=O)N2CCC(N3CCN(C)CC3)CC2)ccc1Nc1ncc2c(n1)N1CCc3cccc(c31)C(=O)N2C` [Compound 24]: the “KINOMEscan: INSR” value at panel of 442 kinases [2] came to 78. With `COc1cc(C(=O)N2CCC(N3CCN(C)CC3)CC2)ccc1Nc1ncc2c(n1)N(C)c1ccccc1C(=O)N2C` [15 (LRRK2-IN-1)], the “KINOMEscan: PIK3CD” value on panel of 442 kinases [1] is on record as 62. Moreover, the “KINOMEscan: INSR” value on panel of 442 kinases [2] amounted to 84. In the same order, the values of `CCOc1cc(C(=O)N2CCC(N3CCN(C)CC3)CC2)ccc1Nc1ncc2c(n1)N(C1CCCC1)c1ccccc1C(=O)N2C` [Compound 26] are 91 and 100.
